Like-named read-outs stand apart in the source and are kept apart here.
Tests used:
HDP cells [1] = assay: Boyden chamber migration assay; format: cell-based, human; details: 24 h, BSE based on SFN equivalence
Protocol: To evaluate the migratory ability of HDP cells, a Boyden chamber assay was performed. HDP cells were serum-starved for 24 h in a medium containing 0.5% (v/v) FCS. […] The lower chambers were filled with 600 µL of HDP medium supplemented with 4% FCS, 4% bovine pituitary extract, 1 ng/L recombinant human fibroblast growth factor, and 5 µg/L recombinant human insulin. After a 24 h incubation period to allow for migration, cells were fixed with 4% paraformaldehyde (BL539A, Biosharp, Hefei, Anhui, China) for 15 min and stained using Crystal Violet Staining Solution (C0121, Beyotime, Shanghai, China) for 10 min. Non-migrated cells on the upper side of the insert membrane were carefully removed using a cotton swab. To quantify migrated cells, the basal chambers were filled with 500 µL of calcein-AM-based cell dissociation solution. Cells were incubated for 1 h at 37 °C, and the fluorescence of the dissociated calcein-AM was measured using a microplate reader at an excitation wavelength of 485 nm and an emission wavelength of 520 nm.

HaCaT keratinocytes = details: human, 24 h
[2] = after 5 weeks, cited from earlier work
HDP cells [3] = assay: In vitro scratch wound recovery assay; format: cell-based, human
Protocol: No. BA-045855; Sartorius AG, […], Germany). […] Sartorius AG), following the manufacturer's instructions. Detached cells were removed by washing twice with PBS (pH 7.4). […] All treatments were performed in triplicate, including a vehicle control. […] Wound closure was quantified using the Incucyte® Scratch Wound Analysis Software Module, which calculates relative wound density (%) by comparing cell density within the wound area to that of the surrounding monolayer, providing an objective measure of cell migration and proliferation over time.

[4] = pH 1.2 (mimics gastric fluid), within 1 h; cited from earlier work
[5] = in water at 25 °C; cited from earlier work
[6] = tested on: CCD-986sk dermal fibroblasts; details: human, 24 h
HDP cells [7] = assay: In vitro cell proliferation assay (WST-1); format: cell-based, human; details: between 0.5 and 5 µg/mL
in vivo = details: Sprague-Dawley, rat, plasma, rats; for AUC(0-inf): read-out: AUCinf of SFN; for AUC(0-t): read-out: AUClast of SFN; for half-life: read-out: T1/2 of SFN (converted)
Protocol: To evaluate absolute oral bioavailability, an intravenous (IV) bolus dose of SFN (2 mg/kg, dissolved in normal saline, 200 µL) was administered via a cannulated femoral vein. Blood samples (300 µL) were collected from the femoral artery at predetermined time points: 0.17, 0.5, 1, 1.5, 2, 4, 8, and 12 h post-IV dosing, and 0.17, 0.5, 1, 2, 4, 6, 8, and 12 h post-oral dosing. Samples were immediately centrifuged at 13,000× g for 5 min at 4 °C to separate plasma, which was stored at −80 °C until further analysis.
The plasma concentrations of SFN were determined using liquid chromatography–tandem mass spectrometry (LC–MS/MS) following protein precipitation and solid-phase extraction. Briefly, 180 µL of plasma was spiked with 10 µL of SFN working solution (0.2–20 µg/mL) and 10 µL of internal standard (IS), phenethyl isothiocyanate (PHE, 5 µg/mL in acetonitrile). Proteins were precipitated by adding 200 µL of a solvent mixture consisting of 25% acetonitrile, 25% water, and 50% ethanol, followed by centrifugation at 18,340× g for 5 min at 4 °C. The resulting 400 µL supernatant was subjected to SPE using Oasis® HLB 96-well µElution plates (2 mg sorbent per well, 30 µm particle size; Waters Corporation, Milford, MA, USA), preconditioned with 200 µL each of methanol and water. After sample loading, the wells were washed sequentially with 200 µL of water and 50% aqueous methanol, and analytes were eluted with 400 µL of acetonitrile (2 × 200 µL).
Chromatographic separation was achieved on an ACQUITY UPLC system (Waters Corporation) using a BEH C18 column (50 × 2.1 mm, 1.7 µm). The mobile phase consisted of 10 mM ammonium acetate in water (30%, solvent A) and 0.1% formic acid in acetonitrile (70%, solvent B), delivered at a flow rate of 0.6 mL/min. The column temperature was maintained at 50 °C, and the injection volume was 10 µL.
Detection was performed using a Xevo TQ-S triple quadrupole mass spectrometer (Waters Corporation) equipped with an electrospray ionization source in the positive-ion mode. Multiple reaction monitoring (MRM) transitions were set at m/z 178.0 → 114.0 for SFN (cone voltage: 24 V; collision energy: 30 eV) and m/z 164.0 → 130.0 for PHE (cone voltage: 23 V; collision energy: 22 eV). The instrument settings included a capillary voltage of 3.0 kV, source temperature of 120 °C, desolvation temperature of 500 °C, desolvation gas (nitrogen) flow of 800 L/h, and cone gas (nitrogen) flow of 50 L/h. Argon was used as the collision gas. All the MRM parameters were optimized using the software IntelliStart^TM (Waters Corporation).
The calibration curve for SFN was linear over the range of 0.5–1000 ng/mL, with a lower limit of detection (LOD) of 0.5 ng/mL. The overall recovery of SFN using the described extraction method was 90 ± 3%, when compared to the direct analysis of the standard diluted in methanol.

[8] = in humans; cited from earlier work

## C[S+]([O-])CCCCN=C=S (stereo not drawn) [SFN, Sulforaphane]
HDP cells [1]; 0.1 µg/mL
  relative HDP cell migration (untreated control = 100%): 141%
HDP cells [1]; 1 µg/mL
  relative HDP cell migration (untreated control = 100%): 150%
HDP cells [1]; 25 µg/mL
  relative HDP cell migration (untreated control = 100%): 16.7%
HaCaT keratinocytes
  concentration above which cytotoxic effects (decreased cell viability) were seen: above 10 µg/mL
[2]; stored at 4 °C
  residual SFN content: 95.18 ± 0.20%
[2]; stored at 26 °C
  residual SFN content: 78.45 ± 0.28%
[2]; stored at −20 °C
  residual SFN content: 96.56 ± 0.15%
HDP cells [3]; 1 µg/mL, 16 h
  scratch wound closure: 71.5%
HDP cells [3]; 1 µg/mL, 20 h
  scratch wound closure: 74.9%
HDP cells [3]; 1 µg/mL, 24 h
  scratch wound closure: 94.8%
HDP cells [3]; 25 µg/mL, 16 h
  scratch wound closure: significant cell detachment and reduced recovery
HDP cells [3]; 25 µg/mL, 20 h
  scratch wound closure: remaining below the control
[4]
  fraction degraded: ~90%
[5]
  aqueous solubility: ~ 1.85 mg/mL
[6]
  concentration at which proliferation decreased (dose-dependent cytotoxicity): ≥ 5000 ng/mL
HDP cells [7]
  relative cell proliferation: approximately 200%
In vivo; SFN IV 2 mg/kg
  Cmax: 339 ± 50 ng/mL
  AUC(0-inf): 421 ± 67 ng·h/mL
  AUC(0-t): 403 ± 52 ng·h/mL
  half-life: 7 ± 3 h
In vivo; SFN oral 5 mg/kg
  Cmax: 155 ± 17 ng/mL
  Tmax: 2 h
  AUC(0-inf): 934 ± 41 ng·h/mL
  AUC(0-t): 874 ± 46 ng·h/mL
  half-life: 5 h
In vivo; SFN oral 5 mg/kg, vs SFN IV
  bioavailability: 87 ± 5%
[8]
  biological half-life: approximately 2.2 h

From PMC12347391, “Sulforaphane-Rich Broccoli Sprout Extract Promotes Hair Regrowth in an Androgenetic Alopecia Mouse Model via Enhanced Dihydrotestosterone Metabolism” (International Journal of Molecular Sciences, 2025)
